Data reported in patent US9604925B2, “Class II HMG-CoA reductase inhibitors and methods of use” (Purdue Research Foundation, priority 2012, dated 2017).
Values after ≈ are worked out from the molar mass of the structure shown. Marks after values point to notes of the source that are not given here. One block for each compound: values may come before it.

What was measured:
[1] = test system: methicillin-resistant Staphylococcus aureus (MRSA) ATCC 43300; experiment: MIC/MBC micro dilution against MRSA; conditions: for MBC, μM: MRSA, Table 1; for MRSA MBC: MRSA ATCC 43300, MHB, 20 hours, Table 2; for MBC / MIC: Staphylococcus aureus
S. aureus HMGR = S. aureus HMGR (Staphylococcus aureus, UniProt Q9FD86); experiment: biochemical
[2] = test system: Staphylococcus aureus ATCC 6538 adherent organisms (biofilm); experiment: MIC/MBC in adherent-cell biofilm of S. aureus ATCC 6538; type: cell-based; conditions: for Adherent organisms (biofilm) MIC^b: S. aureus ATCC 6538, 20 h; for Adherent organisms (biofilm) MBC^b: S. aureus ATCC 6538, regrowth 20 h in antibiotic-free MHB
Method: An adherent biofilm for susceptibility testing was formed using a clinical isolate of Staphylococcus aureus (ATCC 6538). S. aureus biofilms were prepared in a tissue culture non-treated polystyrene 96-well plate (Corning) and washed with phosphate-buffered saline (PBS) to remove unbound bacteria. Subsequently, serial twofold dilutions of the compounds in MHB were added to wells containing adherent organisms. The polystyrene plates were incubated for 20 h at 37° C. The MIC was taken as the lowest drug concentration at which observable growth was inhibited.

[3] = test system: Staphylococcus aureus ATCC 6538 planktonic organisms (not in biofilm); experiment: MIC/MBC against planktonic S. aureus ATCC 6538; type: cell-based
J774A.1 cells = experiment: In vitro cell viability/cytotoxicity MTS assay; type: cell-based; conditions: 100 μM, 24 hours
Method: Cytotoxicity of the compounds was evaluated using J774A.1 cells (mitochondrial function) in the CellTiter 96® AQueous Non-Radioactive Cell Proliferation Assay (Promega). […] Formazan is measured by measuring the absorbance at 490 nm. Briefly, ˜2×10^4 J774A.1 cells suspended in 200 μL DMEM supplemented with 10% fetal bovine serum (FBS), L-glutamine, NaHCO3, pyridoxine-HCl, and […] glucose and preserved with 1% penicillin-streptomycin solution were seeded in 96-well plates and incubated at 37° C. in a 5% CO2 atmosphere. The cells were cultured for 24 hours (60% confluency) before the assays. The J774A.1 cells were further incubated with 100 μM of compounds (2f, […], 2j, and 2e) and DMSO as a control for 24 hours. The culture media was discarded, and the cells in each well were washed with PBS and re-suspended with 100 μL of cell culture media prior to addition of the assay reagent. The plates were incubated for 4 hours at 37° C. in a humidified 5% CO2 atmosphere. The absorbance at 490 nm was recorded using a 96-well Elisa plate reader (SoftMax ProInc., USA). Results were expressed as the percentage mean absorbance by cells upon incubation with various treatments (compounds 2f, 2j, 2i, and 2e) with respect to incubation with DMSO. The results are expressed as means from six measurements±SD.

[4] = test system: clinical methicillin-resistant Staphylococcus aureus (MRSA) isolates; experiment: MIC/MBC against clinical MRSA isolates
[5] = test system: vancomycin resistant Enterococcus faecalis (VRE) ATCC 51299; experiment: MIC/MBC micro dilution against VRE; conditions: VRE ATCC 51299, MHB, 20 hours
[6] = test system: C. elegans infected with VRE; experiment: Treatment of C. elegans infected with VRE; conditions: VRE-infected worms, 100 μM; for Log CFU/worm: 16 hours treatment; for Log Reduction: versus DMSO control
[7] = test system: vancomycin intermediate Staphylococcus aureus (VISA) NRS1; experiment: MIC/MBC against clinical VISA isolate
[8] = test system: Candida albicans ATCC 18804; experiment: MIC/MFC against Candida albicans in YM broth; type: cell-based; conditions: yeast medium broth
Method: Antifungal activities of 22 HMG-CoA Reductase inhibitors were initially tested at 100 μM concentration against Candida albicans ATCC 18804.

[9] = test system: C. elegans infected with MRSA; experiment: Treatment of C. elegans infected with MRSA; conditions: MRSA-infected worms, 100 μM; for Log CFU/worm: 16 hours treatment; for Log Reduction: versus DMSO control

Compound: O=C(O)c1cc(S(=O)(=O)Nc2ccc(CCc3ccccc3)cc2)ccc1O [Compound 2m, 2-hydroxy-5-[N-(4-phenethylphenyl)sulfamoyl]benzoic acid]
MBC, μM [1]: no enzymatic inhibition or bactericidal activity

Compound: CCc1ccc(NS(=O)(=O)c2ccc(O)c(C(=O)O)c2)cc1 [Compound 2a, 5-[N-(4-ethylphenyl)sulfamoyl]-2-hydroxybenzoic acid]
IC50, μM (S. aureus HMGR): ^d (No significant inhibition of HMGR activity was observed at the concentrations tested.)

Compound: CCCCCCc1ccc(NS(=O)(=O)c2ccc(O)c(C(=O)O)c2)cc1 [Compound 2d, 5-[N-(4-hexylphenyl)sulfamoyl]-2-hydroxybenzoic acid]
Adherent organisms (biofilm) MIC^b [2]: 128 µM | Adherent organisms (biofilm) MBC^b [2]: >128 µM | MRSA MBC [1]: 128/128 | MBC [1]: 128 µM (≈ 48.3 µg/mL) | MIC [1]: 128 µM (≈ 48.3 µg/mL) | Planktonic organisms (not in biofilm) MBC [3]: 128 µM | Planktonic organisms (not in biofilm) MIC [3]: 128 µM | IC50 (S. aureus HMGR): 77 ± 6 µM

Compound: CCCCc1ccc(NS(=O)(=O)c2ccc(OCC(N)=O)c(C(=O)O)c2)cc1 [Compound 3, 5-[N-(4-butylphenyl)sulfamoyl]-2-(carbamoylmethoxy)benzoic acid]
MBC, μM [1]: failed to show any enzymatic inhibition or bactericidal activity

Compound: CCCc1ccc(NS(=O)(=O)c2ccc(O)c(C(=O)O)c2)cc1 [Compound 2b, 2-hydroxy-5-[N-(4-propylphenyl)sulfamoyl]benzoic acid]
IC50, μM (S. aureus HMGR): ^d (No significant inhibition of HMGR activity was observed at the concentrations tested.)

Compound: CCCCCc1ccc(NS(=O)(=O)c2ccc(O)c(C(=O)O)c2)cc1 [Compound 2c, 2-hydroxy-5-[N-(4-pentylphenyl)sulfamoyl]benzoic acid]
IC50 (S. aureus HMGR): 98 ± 3 µM

Compound: CC(C)(C)CCc1ccc(NS(=O)(=O)c2ccc(O)c(C(=O)O)c2)cc1 [Compound 2k, 5-[N-(4-(3,3-dimethylbutyl)phenyl)sulfamoyl]-2-hydroxybenzoic acid]
VRE MBC [5]: 128/128 | MBC, μM [1]: failed to exhibit any activity

Second part, led by results:

Adherent organisms (biofilm) MIC^b [2]: 64 µM | MIC ([4]; MRSA / NRS123 / USA400): 32 µM (≈ 12.5 µg/mL) | MIC ([4]; MRSA / NRS382 / USA100): 32 µM (≈ 12.5 µg/mL) | MIC ([4]; MRSA / NRS383 / USA200): 16 µM (≈ 6.26 µg/mL) | MIC ([4]; MRSA / NRS384 / USA300): 32 µM (≈ 12.5 µg/mL) | MIC ([4]; MRSA / NRS385 / USA500): 16 µM (≈ 6.26 µg/mL) | MIC ([4]; MRSA / NRS386 / USA700): 32 µM (≈ 12.5 µg/mL) | MIC ([4]; MRSA / NRS387 / USA800): 16 µM (≈ 6.26 µg/mL) | MIC ([4]; MRSA / NRS483): 16 µM (≈ 6.26 µg/mL) | MIC ([4]; MRSA / NRS484): 16 µM (≈ 6.26 µg/mL) | MIC [1]: 64 µM (≈ 25.1 µg/mL) | MIC [7]: 16 µM (≈ 6.26 µg/mL) | Planktonic organisms (not in biofilm) MIC [3]: 64 µM | Candida albicans MIC [8]: 64 µM | IC50 (S. aureus HMGR): 28 µM
Compound: CCCCCCCc1ccc(NS(=O)(=O)c2ccc(O)c(C(=O)O)c2)cc1 [Compound 2e, 5-[N-(4-heptylphenyl)sulfamoyl]-2-hydroxybenzoic acid]
percentage mean absorbance at 490 nm (MTS) versus DMSO (J774A.1 cells): no significant differences in percentage mean absorption | Adherent organisms (biofilm) MBC^b [2]: 128 µM | MBC ([4]; MRSA / NRS123 / USA400): 32 µM (≈ 12.5 µg/mL) | MBC ([4]; MRSA / NRS382 / USA100): 32 µM (≈ 12.5 µg/mL) | MBC ([4]; MRSA / NRS383 / USA200): 32 µM (≈ 12.5 µg/mL) | MBC ([4]; MRSA / NRS384 / USA300): 32 µM (≈ 12.5 µg/mL) | MBC ([4]; MRSA / NRS385 / USA500): 16 µM (≈ 6.26 µg/mL) | MBC ([4]; MRSA / NRS386 / USA700): 32 µM (≈ 12.5 µg/mL) | MBC ([4]; MRSA / NRS387 / USA800): 32 µM (≈ 12.5 µg/mL) | MBC ([4]; MRSA / NRS483): 32 µM (≈ 12.5 µg/mL) | MBC ([4]; MRSA / NRS484): 32 µM (≈ 12.5 µg/mL) | VRE MBC [5]: 64/64 | MRSA MBC [1]: 64/64 | MBC [1]: 64 µM (≈ 25.1 µg/mL) | Log CFU/worm [6]: 0.86 ± 1.03 Log CFU/worm | Log Reduction [6]: 4.04* | MBC [7]: 16 µM (≈ 6.26 µg/mL) | Planktonic organisms (not in biofilm) MBC [3]: 64 µM | Candida albicans MFC [8]: 128 µM | Log CFU/worm [9]: 1.80 ± 0.10 Log CFU/worm | Log Reduction [9]: 3.24*

IC50 (S. aureus HMGR): 1.9 µM | improvement of IC50 over lead compound 1 (S. aureus HMGR): 45 fold
Compound: CCCCCCCCCCCCCCc1ccc(NS(=O)(=O)c2ccc(O)c(C(=O)O)c2)cc1 [Compound 2h, 2-hydroxy-5-[N-(4-tetradecylphenyl)sulfamoyl]benzoic acid]
MBC, μM [1]: lost bactericidal activity

Adherent organisms (biofilm) MIC^b [2]: 4 µM
Compound: CC(=O)NC[C@H]1CN(c2ccc(N3CCOCC3)c(F)c2)C(=O)O1 [Linezolid, linezolid, reference compound]
Adherent organisms (biofilm) MBC^b [2]: 16 µM | Log CFU/worm [6]: 1.47 ± 0.06 Log CFU/worm | Log Reduction [6]: 3.43*

MIC ([4]; MRSA / NRS123 / USA400): 16 µM (≈ 6.46 µg/mL) | MIC ([4]; MRSA / NRS382 / USA100): 16 µM (≈ 6.46 µg/mL) | MIC ([4]; MRSA / NRS383 / USA200): 16 µM (≈ 6.46 µg/mL) | MIC ([4]; MRSA / NRS384 / USA300): 16 µM (≈ 6.46 µg/mL) | MIC ([4]; MRSA / NRS385 / USA500): 16 µM (≈ 6.46 µg/mL) | MIC ([4]; MRSA / NRS386 / USA700): 16 µM (≈ 6.46 µg/mL) | MIC ([4]; MRSA / NRS387 / USA800): 16 µM (≈ 6.46 µg/mL) | MIC ([4]; MRSA / NRS483): 8 µM (≈ 3.23 µg/mL) | MIC ([4]; MRSA / NRS484): 16 µM (≈ 6.46 µg/mL) | MIC [1]: 32 µM (≈ 12.9 µg/mL) | MIC [7]: 16 µM (≈ 6.46 µg/mL) | IC50 (S. aureus HMGR): 16.2 ± 10 µM
Compound: O=C(O)c1cc(S(=O)(=O)Nc2ccc(CCC3CCCCC3)cc2)ccc1O [Compound 2l, 5-[N-(4-(2-cyclohexylethyl)phenyl)sulfamoyl]-2-hydroxybenzoic acid]
MBC ([4]; MRSA / NRS123 / USA400): 16 µM (≈ 6.46 µg/mL) | MBC ([4]; MRSA / NRS382 / USA100): 16 µM (≈ 6.46 µg/mL) | MBC ([4]; MRSA / NRS383 / USA200): 16 µM (≈ 6.46 µg/mL) | MBC ([4]; MRSA / NRS384 / USA300): 16 µM (≈ 6.46 µg/mL) | MBC ([4]; MRSA / NRS385 / USA500): 16 µM (≈ 6.46 µg/mL) | MBC ([4]; MRSA / NRS386 / USA700): 16 µM (≈ 6.46 µg/mL) | MBC ([4]; MRSA / NRS387 / USA800): 16 µM (≈ 6.46 µg/mL) | MBC ([4]; MRSA / NRS483): 16 µM (≈ 6.46 µg/mL) | MBC ([4]; MRSA / NRS484): 16 µM (≈ 6.46 µg/mL) | VRE MBC [5]: 64/64 | MRSA MBC [1]: 32/32 | MBC [1]: 32 µM (≈ 12.9 µg/mL) | Log CFU/worm [6]: 0.43 ± 0.68 Log CFU/worm | Log Reduction [6]: 4.47* | MBC [7]: 16 µM (≈ 6.46 µg/mL) | Log CFU/worm [9]: 2.20 ± 0.43 Log CFU/worm | Log Reduction [9]: 2.84*

Adherent organisms (biofilm) MIC^b [2]: 128 µM | MIC [1]: 64 µM (≈ 24.2 µg/mL) | Planktonic organisms (not in biofilm) MIC [3]: 128 µM | IC50 (S. aureus HMGR): 36 ± 4 µM
Compound: CC(C)CCCc1ccc(NS(=O)(=O)c2ccc(O)c(C(=O)O)c2)cc1 [Compound 2i, 2-hydroxy-5-[N-(4-(4-methylpentyl)phenyl]sulfamoyl)benzoic acid]
percentage mean absorbance at 490 nm (MTS) versus DMSO (J774A.1 cells): no significant differences in percentage mean absorption | Adherent organisms (biofilm) MBC^b [2]: 128 µM | Planktonic organisms (not in biofilm) MBC [3]: 128 µM

MIC [1]: 128 µM (≈ 59.1 µg/mL) | IC50 (S. aureus HMGR): 5.9 ± 0.5 µM
Compound: CCCCCCCCCCCCc1ccc(NS(=O)(=O)c2ccc(O)c(C(=O)O)c2)cc1 [Compound 2g, 5-[N-(4-dodecylphenyl)sulfamoyl]-2-hydroxybenzoic acid]
VRE MBC [5]: 128/128 | MRSA MBC [1]: 128/>128 | MBC [1]: 128 µM (≈ 59.1 µg/mL)
